From US20150218212A1, “FLUORINATED EPOXYKETONE-BASED TETRAPEPTIDE COMPOUNDS AND USES THEREOF AS PROTEASOME INHIBITORS” (FLUORINOV PHARMA INC., priority 2012, published 2015) come the findings set out here.

Each structure is given as a SMILES string.

In the assay the target is T1, chymotrypsin-like (CT-L) proteasome activity (Homo sapiens, UniProt P20618+P28074).
T1 sequence (P28074 60-263): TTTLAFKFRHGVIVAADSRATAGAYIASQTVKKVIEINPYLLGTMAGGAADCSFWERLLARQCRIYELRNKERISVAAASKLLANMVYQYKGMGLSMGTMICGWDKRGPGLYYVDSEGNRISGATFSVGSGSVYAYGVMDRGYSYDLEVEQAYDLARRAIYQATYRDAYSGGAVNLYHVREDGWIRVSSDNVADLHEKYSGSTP
T1 sequence (P20618 29-241): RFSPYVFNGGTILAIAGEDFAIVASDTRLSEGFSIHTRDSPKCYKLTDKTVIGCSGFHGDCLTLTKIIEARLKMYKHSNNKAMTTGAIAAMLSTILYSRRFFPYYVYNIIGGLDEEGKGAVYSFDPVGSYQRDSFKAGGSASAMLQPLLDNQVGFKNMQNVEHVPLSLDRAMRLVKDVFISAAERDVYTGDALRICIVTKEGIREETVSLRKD
Briefly: Proteasome enzymatic activity (tumor cell lysates), CT-L, OCI-AML-2. The class given is biochemical. The following applies: OCI-AML-2, mean ± standard deviation. As for the experimental part: Human multiple myeloma cell lines 8226, H929, JJN3, KMH11, KMS11, KMS18, LP1, MM1S, OPM2 and U266 were grown in Iscove modified Dulbecco's medium (IMDM). Human leukemia cell lines K562, OCI-AML2 and U937 were cultured in RPMI-1640 medium. Primary peripheral blood mononuclear cells were isolated from multiple myeloma patients by Ficoll density gradient centrifugation and bone marrow aspirates were obtained from multiple myeloma patients at the Princess Margaret Cancer Centre of the University Health Network (UHN; Toronto, ON, Canada). Primary cells were cultured in IMDM. The collection and use of human tissue for this study was approved by the UHN institutional ethics review board. All cell culture media were obtained from the Ontario Cancer Institute Tissue Culture Media Facility (Toronto, ON, Canada) and were supplemented with 10% fetal calf serum, […] (Hyclone, Logan, Utah). All cells were grown in a humidified incubator at 37° C. with 5% CO2.
Cells were harvested by centrifugation at 1,200 rpm at room temperature. Cell pellets were washed with PBS (phosphate buffered saline) and lysed with assay lysis buffer (50 mM HEPES (N-2-hydroxyethylpiperazine-N′-2-ethanesulfonic acid), pH 7.5; 150 mM NaCl; 1% Triton X-100; 2 mM ATP). Cell lysates were incubated on ice for 30 minutes, mixed by vortex every 5 minutes, and then centrifuged at 12,000 g for 10 minutes. The supernatant was transferred to a 96-well plate. For each assay, 10 μg of total protein were incubated for 1 hour at 37° C. with increasing concentrations (1 nM to 10 μM) of test compound diluted in assay buffer (50 mM tris-HCl (tris(hydroxymethyl)aminomethane-HCl), pH 7.5; 150 mM NaCl). DMSO alone was used as a control in every assay plate. After incubation, a specific fluorogenic proteasome substrate was added to each assay reaction at a final concentration of 40 μM in a total volume of 100 μL. N-Succinyl-Leu-Leu-Val-Tyr-7-amino-4-methylcoumarin (Suc-Leu-Leu-Val-Tyr-AMC) was used for measuring chymotrypsin-like (CT-L) activity, t-butoxycarbonyl-Leu-Arg-Arg-7-amino-4-methylcoumarin (Boc-Leu-Arg-Arg-AMC) for trypsin-like (T-L) activity, and benzyloxycarbonyl-L-leucyl-L-leucyl-L-glutamyl-7-amino-4-methylcoumarin (Z-Leu-Leu-Glu-AMC) for caspase-like (C-L) activity. The excitation wavelength was set at 360 nm and the fluorescence emission wavelength of AMC was detected at 460 nm. The fluorescence of free AMC released during the enzymatic reaction was measured with a SpectraMax M5 fluorescent spectrophotometric plate reader (Molecular Devices, Sunnyvale, Calif.). AMC release rate was measured at 37° C. in a kinetic mode, recording every 5 minutes for 30 minutes. Experiments were performed in triplicate and repeated at least twice.
Table 8 summarizes the data of representative compounds of Formula I for cell viability and CT-L proteasome activity with OCI-AML-2 and KMS-11 cell lines.
Regarding `CC(C)C[C@H](NC(=O)[C@H](COC(F)F)NC(=O)CN1CCOCC1)C(=O)N[C@@H](COC(F)F)C(=O)N[C@@H](CC(C)C)C(=O)[C@@]1(C)CO1` [Example 1, (2S)—N-[(1S)-1-(difluoromethoxymethyl)-2-[[(1S)-3-methyl-1-[(2R)-2-methyloxirane-2-carbonyl]butyl]amino]-2-oxo-ethyl]-2-[[(2S)-3-(difluoromethoxy)-2-[(2-morpholinoacetyl)amino]propanoyl]amino]-4-methyl-pentanamide], the IC50 (commonly the concentration at which inhibition is half-maximal) came out at 39 ± 1.24 nM.

Regarding `CC(C)C[C@H](NC(=O)[C@H](COC(F)F)NC(=O)CN1CCOCC1)C(=O)N[C@@H](Cc1ccccc1)C(=O)N[C@@H](CC(C)C)C(=O)[C@@]1(C)CO1` [Example 2, (2S)-N-[(1S)-1-benzyl-2-[[(1S)-3-methyl-1-[(2R)-2-methyloxirane-2-carbonyl]butyl]-amino]-2-oxo-ethyl]-2-[[(2S)-3-(difluoromethoxy)-2-[(2-morpholinoacetyl)amino]propanoyl]amino]-4-methyl-pentanamide], the IC50 came out at 41.2 ± 3.19 nM.

As to `CC(C)C[C@H](NC(=O)[C@H](COC(F)F)NC(=O)CN1CCOCC1)C(=O)N[C@@H](Cc1ccccc1)C(=O)N[C@@H](Cc1ccccc1)C(=O)[C@@]1(C)CO1` [Example 3, (2S)-N-[(1S)-1-benzyl-2-[[(1S)-1-benzyl-2-[(2R)-2-methyloxiran-2-yl]-2-oxo-ethyl]amino]-2-oxo-ethyl]-2-[[(2S)-3-(difluoromethoxy)-2-[(2-morpholinoacetyl)-amino]propanoyl]amino]-4-methyl-pentan-amide], half-maximal inhibition (IC50) was put at 30 ± 2.44 nM.

`CC(C)C[C@H](NC(=O)[C@H](COC(F)F)NC(=O)CN1CCOCC1)C(=O)N[C@@H](COC(F)F)C(=O)N[C@@H](Cc1ccccc1)C(=O)[C@@]1(C)CO1` [Example 4, (2S)-N-[(1S)-2-[[(1S)-1-benzyl-2-[(2R)-2-methyloxiran-2-yl]-2-oxo-ethyl]amino]-1-(difluoromethoxymethyl)-2-oxo-ethyl]-2-[[(2S)-3-(difluoromethoxy)-2-[(2-mor-pholinoacetyl)amino]propanoyl]amino]-4 methyl-pentanamide] returned an IC50 of 20.9 ± 0.91 nM.

For the molecule `CC(C)C[C@H](NC(=O)[C@H](COC(F)F)NC(=O)[C@H](COC(F)F)NC(=O)[C@H](CCc1ccccc1)NC(=O)CN1CCOCC1)C(=O)[C@@]1(C)CO1` [Example 7, (2S)-N-[(1S)-1-(difluoromethoxymethyl)-2-[[(1S)-1-(difluoromethoxymethyl)-2-[[(1S)-3-methyl-1-[(2R)-2-methyloxirane-2-carbo-nyl]butyl]amino]-2-oxo-ethyl]amino]-2-oxo-ethyl]-2-[(2-morpholinoacetyl)amino]-4-phenyl-butanamide], the IC50 was 24.7 ± 9.6 nM.

On to `CC(C)C[C@H](NC(=O)[C@H](Cc1ccccc1)NC(=O)[C@H](COC(F)F)NC(=O)[C@H](COC(F)F)NC(=O)CN1CCOCC1)C(=O)[C@@]1(C)CO1` [Example 11, (2S)-2-[[(2S)-3-(difluoromethoxy)-2-[[(2S)-3-(difluoromethoxy)-2-[(2-morpholinoacetyl)-amino]propanoyl]amino]propanoyl]amino]-N-[(1S)-3-methyl-1-[(2R)-2-methyloxirane-2-carbonyl]butyl]-3-phenyl-propanamide], for which the IC50 was 30.5 ± 3.9 nM.

`CC(C)C[C@H](NC(=O)[C@H](COC(F)F)NC(=O)[C@H](COC(F)F)NC(=O)[C@H](COC(F)F)NC(=O)CN1CCOCC1)C(=O)[C@@]1(C)CO1` [Example 17, (2S)-3-(difluoromethoxy)-N-[(1S)-1-(difluoromethoxymethyl)-2-[[(1S)-1-(difluoro-methoxymethyl)-2-[[(1S)-3-methyl-1-[(2R)-2-methyloxirane-2-carbonyl]butyl]amino]-2-oxo-ethyl]amino]-2-oxo-ethyl]-2-[(2-mor-pholinoacetyl)amino]-propanamide] returned an IC50 of 58.3 ± 3.11 nM.
